The results in this text go back to ChEMBL document CHEMBL4052701, “Bioactive new withanolides from the cultured soft coral Sinularia brassica” (Bioorg Med Chem Lett, 2017).

One assay relates to K562. As to the kind of experiment: Cytotoxicity against human K562 cells incubated for 72 hrs by alamar blue assay. The format is functional, cell-based. The settings on record: K562, 72 h. (Alamar Blue is a resazurin reagent that responds to reducing activity.)
The subject of assay [1] is Neutrophil. The assay is described as follows: Antiinflammatory activity in human neutrophils assessed as inhibition of fMLP/CB-induced superoxide anion generation by measuring superoxide […] dismutase inhibitable reduction of ferricytochrome c incubated for 5 mins. The format is functional, cell-based.
The next assay concerns MOLT-4. As to the kind of experiment: Cytotoxicity against human MOLT4 cells incubated for 72 hrs by alamar blue assay. Type of assay: functional, cell-based. The settings on record: MOLT-4, 72 h.
In a further assay the test system is P388. The assay is described as follows: Cytotoxicity against mouse P388 cells incubated for 72 hrs by alamar blue assay. Type of assay: functional, cell-based. The conditions noted are these: P388, 72 h.
In a further assay the test system is HT-29. As to the kind of experiment: Cytotoxicity against human HT-29 cells incubated for 72 hrs by alamar blue assay. The conditions noted are these: HT-29, 72 h. Type of assay: functional, cell-based.
The subject of assay [2] is Neutrophil. The assay is described as follows: Antiinflammatory activity in human neutrophils assessed as inhibition of fMLP/CB-induced superoxide anion generation by measuring superoxide […] dismutase inhibitable reduction of ferricytochrome c at 10 uM incubated for 5 mins. The format is functional.
Assay [3] has as its system Neutrophil. As to the kind of experiment: Antiinflammatory activity in human neutrophils assessed as inhibition of fMLP/CB-induced elastase release at 10 uM incubated for 5 mins in presence of MeO-Suc-Ala-Ala-Pro-Val-p-nitroanilide. The format is functional.
For assay [4], the system named is Neutrophil. The assay is described as follows: Antiinflammatory activity in human neutrophils assessed as inhibition of fMLP/CB-induced elastase release incubated for 5 mins in presence of MeO-Suc-Ala-Ala-Pro-Val-p-nitroanilide. The format is functional, cell-based.

Where only a bound is given, the exact number is not on record here.

Take `C[C@H]1[C@H]2[C@H](C[C@H]3[C@@H]4CCC5=CC(=O)C=C[C@]5(C)[C@H]4CC[C@]23C)O[C@@]2(OC(=O)[C@@H](C)[C@H]2C)[C@H]1O`: the IC50 in the assay with K562 was 17.4 µM; in the assay with Neutrophil [1] it was above 10 µM; in the assay on MOLT-4 it was 13.7 µM; with P388, 18.3 µM; in the assay with HT-29, 20.5 µM; with Neutrophil [4], above 10 µM. For the same compound, the inhibition at 10 µM is 34.3% with Neutrophil [2] and 11.4% with Neutrophil [3].

In the case of `C[C@@H]1[C@H]([C@H]2OC(=O)[C@@H](C)[C@H]2C)O[C@H]2C[C@H]3[C@@H]4CCC5=CC(=O)C=C[C@]5(C)[C@H]4CC[C@]3(C)[C@@H]12`, the half-maximal inhibitory concentration (IC50) in the assay on K562 was found to be 8.7 µM; with Neutrophil [1] it was 3.5 µM; with MOLT-4 it was 12.1 µM; in the assay with P388, 29.9 µM; with HT-29, 18.7 µM; in the assay with Neutrophil [4], 1.4 µM. Further, the inhibition at 10 µM in the assay with Neutrophil [2] worked out at 87.7%; with Neutrophil [3], 114%.

Consider `C[C@@H]([C@H]1CC[C@H]2[C@@H]3CCC4=CC(=O)C=C[C@]4(C)[C@H]3CC[C@]12C)[C@H]1C[C@H](C)[C@@H](C)C(=O)O1`, for which the half-inhibitory concentration (IC50) in the assay with K562 is above 40 µM; with Neutrophil [1], above 10 µM; in the assay on MOLT-4, above 40 µM; with P388, above 40 µM; with HT-29, above 40 µM; in the assay on Neutrophil [4] it was above 10 µM. Also, the inhibition at 10 µM was 26.3% in the assay on Neutrophil [2] and 25% in the assay on Neutrophil [3].

`C[C@H]1[C@H]2[C@H](C[C@H]3[C@@H]4CCC5=CC(=O)C=C[C@]5(C)[C@H]4CC[C@]23C)O[C@]2(OC(=O)[C@H](C)[C@H]2C)[C@H]1O`: the IC50 in the assay on K562 is 29.7 µM; in the assay on Neutrophil [1], above 10 µM; with MOLT-4 it was 28.6 µM; with P388 it was 39.8 µM; with HT-29 it was 24.4 µM; in the assay on Neutrophil [4], above 10 µM. Further, the inhibition at 10 µM in the assay on Neutrophil [2] worked out at 14.4%; in the assay on Neutrophil [3] it was 32.4%.

On to `C[C@@H]1C(=O)[C@@]2(OC(=O)[C@H](C)[C@H]2C)O[C@H]2C[C@H]3[C@@H]4CCC5=CC(=O)C=C[C@]5(C)[C@H]4CC[C@]3(C)[C@H]21`, for which the concentration for half-maximal inhibition (IC50) was above 40 µM in the assay with K562; above 10 µM in the assay with Neutrophil [1]; above 40 µM in the assay with MOLT-4; above 40 µM in the assay on P388; above 40 µM in the assay with HT-29; above 10 µM in the assay with Neutrophil [4]. Besides, the inhibition at 10 µM in the assay on Neutrophil [2] came to 17.3%; in the assay on Neutrophil [3], 12.5%.

Consider `C[C@H]1[C@H]([C@@]2(O)O[C@H]3C[C@H]4[C@@H]5CCC6=CC(=O)C=C[C@]6(C)[C@H]5CC[C@]4(C)[C@H]3[C@@H]2C)OC(=O)[C@@H]1C`, for which the IC50 with K562 was 12.6 µM; in the assay on Neutrophil [1] it was above 10 µM; in the assay on MOLT-4 it was 17.2 µM; in the assay with P388 it was 18.7 µM; in the assay on HT-29, 11.2 µM; in the assay on Neutrophil [4], above 10 µM. Further, the inhibition at 10 µM with Neutrophil [2] was 32.1%; in the assay with Neutrophil [3], 9.5%.

On to `CC[C@H](Nc1ncnc2[nH]cnc12)c1nc2cccc(F)c2c(=O)n1-c1ccccc1` [IDELALISIB], for which the concentration for half-maximal inhibition (IC50) was 0.07 µM in the assay on Neutrophil [1] and 0.3 µM in the assay on Neutrophil [4]. In addition, the values for the inhibition at 10 µM in the assay with Neutrophil [2] and with Neutrophil [3] were 103% and 99.6%, respectively.

As for `O=c1[nH]cc(F)c(=O)[nH]1` [FLUOROURACIL], the IC50 with K562 came out at 30.5 µM; with MOLT-4, 6.2 µM; in the assay on P388 it was 5.8 µM; in the assay on HT-29 it was 7.2 µM.

In general, IC50 refers to the concentration that gives 50% inhibition. By inhibition is commonly meant the relative decrease from the control value, in per cent.
